Reference: patent publication US5332743A, “Benzyl and benzhydryl alcohols” (priority 1992, dated 1994)
Read-outs that look alike come from different tables or passages of the source.

Key:
dopamine D2 receptor = molecular target: T1, dopamine D2 receptor (Rattus norvegicus, UniProt P61169); assay: Receptor Binding Assay: dopamine D2 binding, 3H-spiperone, striatal P2 fraction; settings: 3H-spiperone 0.05 nM, 45 min at 37° C., read-out: D-2 Binding K-I
T1 construct: P2 fraction (synaptosomal membranes) prepared from male, Wistar rats; from tissue; host or cells: striatum of male Wistar rats, P2 fraction (synaptosomal membranes)
Protocol: The dopamine D2 binding activity of compounds was determined using a P2 fraction (synaptosomal membranes) prepared from male, Wistar rats. […] The data from this assay were analyzed by calculating the percent inhibition of the binding of the tritiated ligands by given concentrations of the test compound. Ki values, where given, were obtained from the logit analysis of concentration-inhibition curves.

[1] = system: Conditioned Avoidance Responding (Rat); assay: Block of Conditioned Avoidance Responding (Rat) test (CAR); assay type: in vivo; settings: for change in vivo at 5 mg/kg: read-out: CAR 5 mg/kg (IP) (mean % change in CAR); for Escape Loss (% failures to escape, group mean): at CAR 5 mg/kg IP
From the text: Block of Conditioned Avoidance Responding (Rat)
Apparatus: Rat operant chambers, housed within sound attenuated booths, both from Capden Instruments Ltd., were used in this test. The test chamber (8" H×90-3/8" W×9" D) is constructed of aluminum and plexiglass with floor grid bars of stainless-steel (1/8" O.D.) spaced 9/16" apart. A stainless-steel operation level 1-1/2" wide projects 3/4" into the chamber and is positioned 2-2/8" above the grid floor. The shock stimulus is delivered via the grid floor by a Coulbourn Instruments solid state module. The parameters of the test and the collection of data are controlled automatically.
The rats are trained for two weeks to approach criterion levels in the avoidance test (90% avoidance rate). One-hour training sessions are run at about the same time each day for four or five days a week. The training session consists of 120 trials, with the conditioned stimuli presented every 30 seconds. A trail begins with presentation of the conditioned stimuli (a light and a tone). If the rat responds by depressing the operant lever during the 15-second presentation of the conditioned stimuli, the trial is terminated and the animal is credited with a CAR. Failure to respond during the conditioned stimuli causes the presentation of the unconditioned stimulus, a 0.7 mA shock which is accompanied by a light and tone for […]. If the rat depressed the lever within the ten-second period, the shock and trial are terminated and an escape response recorded. If the rat fails to depress the lever during the UCS (shock), the trial is terminated after ten seconds of shock and the absence of a response is scored as a failure to escape. Intertrial level presses have no effect. If a rat performs at the 90% CAR level for two weeks, it is then run twice a week o the test schedule (see below) until baseline performance stabilized.
The percent change in CAR on the drug treatment day compared to vehicle pretreatment day is the key measure. The percent change (% change) in CAR is determined using the following formula:
% change CAR=((Day 2% CAR/Day 1% CAR)×100)-100
A negative number indicates a blockade of CAR, whereas a positive number would indicate increased CAR. The test results are reported as the mean % change for the group of rats. […] Failure to escape was calculated for each animal as follows:
% Failures=# of Failures to Escape/# of trials
The % failures, viz., loss of escape, is also reported as a group mean. Failures to escape are monitored closely and a session is terminated if ten failures occurred.

[2] = rat, 5 mg/kg IP, negative number = blockade of CAR, -20% is the minimum for active

T1 sequence (P61169 whole entry): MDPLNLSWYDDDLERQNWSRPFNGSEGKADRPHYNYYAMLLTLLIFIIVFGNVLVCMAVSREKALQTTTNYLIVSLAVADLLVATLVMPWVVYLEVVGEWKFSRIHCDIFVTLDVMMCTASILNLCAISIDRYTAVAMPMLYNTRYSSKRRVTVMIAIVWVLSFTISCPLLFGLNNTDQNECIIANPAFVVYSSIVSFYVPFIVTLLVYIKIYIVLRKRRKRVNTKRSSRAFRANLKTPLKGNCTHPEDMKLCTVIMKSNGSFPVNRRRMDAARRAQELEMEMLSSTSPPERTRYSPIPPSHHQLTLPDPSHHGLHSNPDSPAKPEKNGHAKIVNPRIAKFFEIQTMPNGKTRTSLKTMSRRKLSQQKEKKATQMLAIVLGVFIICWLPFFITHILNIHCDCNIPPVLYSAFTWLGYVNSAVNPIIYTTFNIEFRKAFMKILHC

Structure (SMILES)	Ki (dopamine D2 receptor) [nM]	change in vivo at 5 mg/kg [1, 2] [%]	Escape Loss (% failures to escape, group mean) ([1]; rat) [%]	change in vivo at 5 mg/kg ([1]; Rattus norvegicus, ip) [%]
CCC(C)(O)c1cccc(CN2CCN(c3ccccc3OC)CC2)c1 (stereo not drawn) [Compound 6, [3-[4-(2-Methoxyphenyl)-1-piperazinyl]methyl]-α-methyl-α-ethylbenzenemethanol]	198	-86	2	
COc1ccccc1N1CCN(Cc2ccc(C(O)c3ccccc3)cc2)CC1 (stereo not drawn) [Compound 9, [4-[4-(2-Methoxyphenyl)-1-piperazinyl]methyl]-α-phenylbenzenemethanol]	53	-99.4	32	
COc1ccccc1N1CCN(Cc2cccc(C(O)c3ccccc3)c2)CC1 (stereo not drawn) [Compound 5, [3-[4-(2-Methoxyphenyl)-1-piperazinyl]methyl]-α-phenylbenzenemethanol]	87	-64.6	2	
COc1ccccc1N1CCN(Cc2cccc(C(O)C3CCCCC3)c2)CC1 (stereo not drawn) [Compound 8, [3-[4-(2-Methoxyphenyl)-1-piperazinyl]methyl]-α-(cyclohexyl)-benzenemethanol]	16	-92.9	2	
CC(C)Oc1ccccc1N1CCN(Cc2cccc(CO)c2)CC1 [Compound 4, 1-(3-Hydroxymethylphenyl)methyl-4-[2-(1-methylethoxy)phenyl]-piperazine]	302		13	-89.2
COc1ccccc1N1CCN(Cc2cccc(C(O)C(C)C)c2)CC1 (stereo not drawn) [Compound 7, [3-[4-(2-Methoxyphenyl)-1-piperazinyl]methyl]-α-(1-methylethyl)-benzenemethanol]	90	-98.8	12	
